Assay results published in US6538001B1, “Crystalline modification of 5-fluoro-1-(tetrahydro-2-furyl) uracil and complex compounds based thereon, producing antineoplastic effect” (priority 2001, dated 2003).
≈ marks a conversion by molar mass, not a printed value. Each block holds one molecule with its values, some of them ahead of it.

Experiments:
[1] = Determination of solubility (USP XXIII article Solubility); type: physicochemical
Protocol: The solubility was determined in accordance with the requirements set out in the article “Solubility”, USPXXTIII (1995, p. 2071).

[2] = test system: uterine neck cancer cells; assay: Cytotoxicity (MTT) on a culture of uterine neck cancer cells; type: cell-based; parameters: Effect on the proliferation of cancer cells: dose or concentration left out as unconfirmed; conditions: for Optical density at 540 nm: 4 days
Protocol: The determination was carried out by following the known procedure (Mosmann N. T., J. Immunology Methods, 1983, vol. 65, 55-63, Carmichel J. et al., Cancer Res., 1987, vol. 47, 936-946) on a culture of uterine neck cancer cells. The cells were grown at 37° C. on the RPMI 1640 medium with additives of a 10%embryonal serum of cows and 200 u/ml of gentamicin. CO2 content in the incubator atmosphere was 10%. The cells which were in the exponential phase of growth were suspended with trypsin and inoculated in an amount of 4×10^3 into each socket of a 96-socket dish for monolayer cultures. Solutions of samples of the preparations to be investigated were prepared by dissolving 23 mg of each preparation in 10 ml of a culture broth, 10^−2 M solutions being thus obtained. These were starting solutions for obtaining solutions of a lower concentration by diluting them with the culture broth. Directly before adding the solutions to the cells, these solutions were sterilized by filtering through millipore filters. One day after the inoculation of the cells, solutions of samples of the preparations to be investigated in prescribed concentrations were added into each socket of the dish. After that the cells grew for another 4 days.
All in all, 9 concentrations of each of the 4 samples of the investigated preparations were tested.
Quantitative estimation of the cytotoxicity of the investigated preparations was carried out with the use of 3-(4,5-dimethylthiazol-2-yl)-2,5-diphenyltetrazolium bromide (MTT). […] 0.5 mg/ml was added into each socket of the dish 4 hours before the completion of cells cultivation. On completion of the incubation, the culture broth was removed from the dish sockets, the formasane crystals were dissolved, and the cells were scanned on an automatic Multiscan MCC/340P reader at the 540 nm wavelength. The results were calculated in percent of the cells subjected to the effect of the investigated preparations, absorbed at 540 nm, as against the absorption of control cells.
The action of each concentration of the investigated preparations on cancer cells was estimated from the results of 4-6 independent experiments, treated by methods of mathematical statistics.

Solubility, % with respect to tegafur ([1]; temperature of solvent 20 °C): 187.5%
SMILES: O=c1[nH]c(=O)n(C2CCCO2)cc1F (stereo not drawn) [Form V of tegafur, 5-fluoro-1-(tetrahydro-2-furyl)uracil]
Solubility compared with pharmacopeial tegafur ([1]; in words): higher than the solubility of pharmacopeial tegafur
Optical density at 540 nm ([2]; 5 × 10^−3 M (on conversion to tegafur), MTT): 0.25 ± 0.02
Optical density at 540 nm ([2]; 5 × 10^−4 M (on conversion to tegafur), MTT): 0.44 ± 0.05
Optical density at 540 nm ([2]; 5 × 10^−5 M (on conversion to tegafur), MTT): 0.70 ± 0.03
Optical density at 540 nm ([2]; 5 × 10^−6 M (on conversion to tegafur), MTT): 0.73 ± 0.03
Optical density at 540 nm ([2]; 10^−2 M (on conversion to tegafur), MTT): 0.16 ± 0.01
Optical density at 540 nm ([2]; 10^−3 M (on conversion to tegafur), MTT): 0.35 ± 0.02
Optical density at 540 nm ([2]; 10^−4 M (on conversion to tegafur), MTT): 0.56 ± 0.06
Optical density at 540 nm ([2]; 10^−5 M (on conversion to tegafur), MTT): 0.73 ± 0.08
Optical density at 540 nm ([2]; 10^−6 M (on conversion to tegafur), MTT): 0.79 ± 0.08
Inhibition of proliferation more intensive than tegafur ([2]; at the concentration of 10^−4 M, relative to tegafur): 70%
Concentration at which the proliferation of cells is inhibited ([2]; uterine neck cancer cells, MTT): 50 µM

solubility ([1]; 20 °C, thermodynamic from solid, temperature of solvent 20 °C): 8000 µg/mL (≈ 40 mM)
SMILES: O=c1[nH]c(=O)n(C2CCCO2)cc1F (stereo not drawn) [pharmacopeial tegafur, 5-fluoro-1-(tetrahydro-2-furyl)uracil, reference compound]
Optical density at 540 nm ([2]; 5 × 10^−3 M (on conversion to tegafur), MTT, listed as Pharmacopeial tegafur): 0.28 ± 0.005
Optical density at 540 nm ([2]; 5 × 10^−4 M (on conversion to tegafur), MTT, listed as Pharmacopeial tegafur): 0.56 ± 0.12
Optical density at 540 nm ([2]; 5 × 10^−5 M (on conversion to tegafur), MTT, listed as Pharmacopeial tegafur): 0.80 ± 0.10
Optical density at 540 nm ([2]; 5 × 10^−6 M (on conversion to tegafur), MTT, listed as Pharmacopeial tegafur): 0.76 ± 0.08
Optical density at 540 nm ([2]; 10^−2 M (on conversion to tegafur), MTT, listed as Pharmacopeial tegafur): 0.26 ± 0.04
Optical density at 540 nm ([2]; 10^−3 M (on conversion to tegafur), MTT, listed as Pharmacopeial tegafur): 0.45 ± 0.06
Optical density at 540 nm ([2]; 10^−4 M (on conversion to tegafur), MTT, listed as Pharmacopeial tegafur): 0.81 ± 0.13
Optical density at 540 nm ([2]; 10^−5 M (on conversion to tegafur), MTT, listed as Pharmacopeial tegafur): 0.81 ± 0.09
Optical density at 540 nm ([2]; 10^−6 M (on conversion to tegafur), MTT, listed as Pharmacopeial tegafur): 0.76 ± 0.05
Effect on the proliferation of cancer cells ([2]; range of concentrations of 10^−6): does not affect the proliferation of cancer cells
